The record followed here is patent publication US20240067632A1, “WEE1 Degrading Compounds and Uses Thereof” (Bristol-Myers Squibb Company, priority 2022, published 2024).

One assay concerns the target T1, WEE1 (Homo sapiens, UniProt P30291+Q96SW2).
T1 construct: C-terminal ePL-tagged (DiscoverX, Fremont, CA) full-length WEE1 expression construct; expressed in transfected cells; host or cells: LentiX-HEK293T (Invitrogen), lentiviral transduction; co-expressing GSPT1-GN (G576N, lacking the first 158 amino acids)
As to the kind of experiment: WEE1-ePL degradation assay (LentiX-WEE1-ePL-GSPT1-ND cells, InCELL Hunter luminescence, 4 h). It counts as cell-based. The note with it: 293T-LentiX WEE1-ePL cells; for DC50: read-out: 293T-LentiX WEE1-ePL Degradation 4 hr (EC50). An outline of the steps: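 LentiX-HEK293T cells stably expressing C-terminally ePL-tagged full-length WEE1 were treated with compounds in a 10-point, 3-fold dilution series starting at 1 uM or 10 uM for 4 h at 37 °C. Remaining WEE1-ePL was detected by InCELL Hunter luminescence, and EC50, Ymin and Ymax came from a four-parameter logistic fit against DMSO control.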

A further assay deals with MKN45 cells. As to the kind of experiment: MKN45 cell proliferation assay (Cell-Titer-Glo, 120 h). It counts as cell-based. Conditions: for EC50: Homo sapiens, MKN-45, 120 h, Cell-Titer-Glo, read-out: MKN45 Cell Prolif. 120 hr (EC50); for MKN45 Cell Prolif. 120 hr (Ymin-Obs): minimal percent of DMSO control observed in the concentrations tested. The method, boiled down:
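Cells seeded at 400/well onto pre-printed 10-point half-log dilutions (top 1 or 10 uM, 0.1% DMSO final), in triplicate, and grown 120 h at 37 C. Viability by Cell-Titer-Glo luminescence, blank-subtracted and normalised to DMSO; EC50 from four-parameter logistic fit, with observed minimal % of control recorded as Ymin-obs.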

The mark [1] stands for this setting: lower limit of the fit (Ymin=0 luciferase inhibitor, Ymax DMSO control).
The mark [2] stands for this setting: lower limit of the fit (0 = luciferase inhibitor, Ymax = DMSO control).

Read-outs that look alike come from different tables or passages of the source.

As for `O=C1CC[C@H](N2Cc3cc(O[C@H]4CCN(Cc5cc(F)c6nc([C@H]7CCOC7)ccc6c5)C4)ccc3C2=O)C(=O)N1` [(3S)-3-(5-{[(3S)-1-({8-fluoro-2-[(3R)-oxolan-3-yl]quinolin-6-yl}methyl)pyrrolidin-3-yl]oxy}-1-oxo-2,3-dihydro-1H-isoindol-2-yl)piperidine-2,6-dione], on WEE1 (setting [1]), the “293T-LentiX WEE1-ePL Degradation 4 hr (Ymin)” value stood at 34.39. Also, the DC50 on WEE1 was found to be 1.34 nM. In the assay on MKN45 cells, the EC50 came out at 1.02 nM and the “MKN45 Cell Prolif. 120 hr (Ymin-Obs)” value amounted to 9.528.

For `O=C1CC[C@H](N2Cc3cc(O[C@H]4CCN(Cc5cc(F)c6nc([C@@H]7CCOC7)ccc6c5)C4)ccc3C2=O)C(=O)N1` [(3S)-3-(5-{[(3S)-1-({8-fluoro-2-[(3S)-oxolan-3-yl]quinolin-6-yl}methyl)pyrrolidin-3-yl]oxy}-1-oxo-2,3-dihydro-1H-isoindol-2-yl)piperidine-2,6-dione], the “293T-LentiX WEE1-ePL Degradation 4 hr (Ymin)” value at WEE1 (setting [1]) was 34.19. Besides, the DC50 on WEE1 is 1.73 nM. In addition, in the assay with MKN45 cells, the EC50 was determined as 1.45 nM and the “MKN45 Cell Prolif. 120 hr (Ymin-Obs)” value is reported as 9.273.

With `CC(=O)N1CCC(c2ncc3cc(CN4CC[C@H](Oc5ccc6c(c5)CN([C@H]5CCC(=O)NC5=O)C6=O)C4)ccc3n2)CC1` [(3S)-3-(5-{[(3S)-1-{[2-(1-acetylpiperidin-4-yl)quinazolin-6-yl]methyl}pyrrolidin-3-yl]oxy}-1-oxo-2,3-dihydro-1H-isoindol-2-yl)piperidine-2,6-dione], on WEE1 (setting [1]), the “293T-LentiX WEE1-ePL Degradation 4 hr (Ymin)” value was 36.09. Also, on WEE1, the DC50 was 35.8 nM. In the assay on MKN45 cells, the EC50 is 13.8 nM and the “MKN45 Cell Prolif. 120 hr (Ymin-Obs)” value came out at 9.035.

For the molecule `CC(=O)N1CCC(c2ccc3cc(CN4CC[C@H](Oc5ccc6c(c5)CN([C@H]5CCC(=O)NC5=O)C6=O)C4)ccc3n2)CC1` [(3S)-3-(5-{[(3S)-1-{[2-(1-acetylpiperidin-4-yl)quinolin-6-yl]methyl}pyrrolidin-3-yl]oxy}-1-oxo-2,3-dihydro-1H-isoindol-2-yl)piperidine-2,6-dione], the “293T-LentiX WEE1-ePL Degradation 4 hr (Ymin)” value at WEE1 (setting [1]) is 36.62. At WEE1, the DC50 turned out to be 10.1 nM. In the assay on MKN45 cells, the EC50 was 11.8 nM and the “MKN45 Cell Prolif. 120 hr (Ymin-Obs)” value is 10.38.

On to `CC(C)(O)c1ccc2cc(CN3CC[C@H](Oc4ccc5c(c4)CN([C@H]4CCC(=O)NC4=O)C5=O)C3)ccc2n1` [(3S)-3-(5-{[(3S)-1-{[2-(2-hydroxypropan-2-yl)quinolin-6-yl]methyl}pyrrolidin-3-yl]oxy}-1-oxo-2,3-dihydro-1H-isoindol-2-yl)piperidine-2,6-dione], for which the “293T-LentiX WEE1-ePL Degradation 4 hr (Ymin)” value at WEE1 (setting [2]) amounted to 33.92. Moreover, the DC50 at WEE1 was found to be 1.69 nM. For the same molecule, in the assay on MKN45 cells (growth inhibition), the EC50 is 10.1 nM. Moreover, the “MKN45 Cell Prolif. 120 hr (Ymin-Obs)” value in the assay on MKN45 cells was found to be 12.89.

Regarding `CC(=O)N1CCN(c2ncc3cc(CN4CC[C@H](Oc5ccc6c(c5)CN([C@H]5CCC(=O)NC5=O)C6=O)C4)ccc3n2)CC1` [(3S)-3-(5-{[(3S)-1-{[2-(4-acetylpiperazin-1-yl)quinazolin-6-yl]methyl}pyrrolidin-3-yl]oxy}-1-oxo-2,3-dihydro-1H-isoindol-2-yl)piperidine-2,6-dione], the “293T-LentiX WEE1-ePL Degradation 4 hr (Ymin)” value at WEE1 (setting [1]) is recorded as 39.39. At WEE1, the DC50 worked out at 9.27 nM. In the assay with MKN45 cells, the EC50 is 8.63 nM and the “MKN45 Cell Prolif. 120 hr (Ymin-Obs)” value is recorded as 9.801.

Consider `CC(=O)N1CCN(c2ccc3cc(CN4CC[C@H](Oc5ccc6c(c5)CN([C@H]5CCC(=O)NC5=O)C6=O)C4)ccc3n2)CC1` [(3S)-3-(5-{[(3S)-1-{[2-(4-acetylpiperazin-1-yl)quinolin-6-yl]methyl}pyrrolidin-3-yl]oxy}-1-oxo-2,3-dihydro-1H-isoindol-2-yl)piperidine-2,6-dione], for which, on WEE1 (setting [1]), the “293T-LentiX WEE1-ePL Degradation 4 hr (Ymin)” value is listed as 40.44. The DC50 on WEE1 is 1.69 nM. In addition, in the assay with MKN45 cells, the EC50 was found to be 9.94 nM and the “MKN45 Cell Prolif. 120 hr (Ymin-Obs)” value worked out at 17.95.

For `CN1CCN(c2ncc3cc(CN4CC[C@H](Oc5ccc6c(c5)CN([C@H]5CCC(=O)NC5=O)C6=O)C4)ccc3n2)CC1` [(3S)-3-(5-{[(3S)-1-{[2-(4-methylpiperazin-1-yl)quinazolin-6-yl]methyl}pyrrolidin-3-yl]oxy}-1-oxo-2,3-dihydro-1H-isoindol-2-yl)piperidine-2,6-dione], the “293T-LentiX WEE1-ePL Degradation 4 hr (Ymin)” value on WEE1 (setting [1]) was 37.97. Further, at WEE1, the DC50 amounted to 11.1 nM. Moreover, in the assay with MKN45 cells, the EC50 is 15.2 nM and the “MKN45 Cell Prolif. 120 hr (Ymin-Obs)” value was 12.23.

Consider `O=C1CC[C@H](N2Cc3cc(O[C@H]4CCN(Cc5ccc6nc(N7CCC7)ncc6c5)C4)ccc3C2=O)C(=O)N1` [(3S)-3-(5-{[(3S)-1-{[2-(azetidin-1-yl)quinazolin-6-yl]methyl}pyrrolidin-3-yl]oxy}-1-oxo-2,3-dihydro-1H-isoindol-2-yl)piperidine-2,6-dione], for which the “293T-LentiX WEE1-ePL Degradation 4 hr (Ymin)” value at WEE1 (setting [1]) stood at 45.2. Also, the DC50 at WEE1 was determined as 12.1 nM. In the assay with MKN45 cells, the EC50 came out at 33.8 nM and the “MKN45 Cell Prolif. 120 hr (Ymin-Obs)” value was 31.75.

On to `O=C1CC[C@H](N2Cc3cc(O[C@H]4CCN(Cc5cc(C(F)(F)F)c6nc(N7CCOCC7)ncc6c5)C4)ccc3C2=O)C(=O)N1` [(3S)-3-(5-{[(3S)-1-{[2-(morpholin-4-yl)-8-(trifluoromethyl)quinazolin-6-yl]methyl}pyrrolidin-3-yl]oxy}-1-oxo-2,3-dihydro-1H-isoindol-2-yl)piperidine-2,6-dione], for which the “293T-LentiX WEE1-ePL Degradation 4 hr (Ymin)” value at WEE1 (setting [1]) is 33.06. Also, on WEE1, the DC50 was determined as 1.8 nM. Besides, in the assay on MKN45 cells, the EC50 is 8.91 nM and the “MKN45 Cell Prolif. 120 hr (Ymin-Obs)” value stood at 3.502.

Regarding `O=C1CC[C@H](N2Cc3cc(O[C@H]4CCN(Cc5ccc6nc(N7CCOCC7)ncc6c5)C4)ccc3C2=O)C(=O)N1` [(3S)-3-(5-{[(3S)-1-{[2-(morpholin-4-yl)quinazolin-6-yl]methyl}pyrrolidin-3-yl]oxy}-1-oxo-2,3-dihydro-1H-isoindol-2-yl)piperidine-2,6-dione], the “293T-LentiX WEE1-ePL Degradation 4 hr (Ymin)” value at WEE1 (setting [2]) was found to be 34. The DC50 at WEE1 was found to be 7.36 nM. For the same molecule, the EC50 in the assay with MKN45 cells (growth inhibition) came to 11.7 nM. In addition, in the assay with MKN45 cells, the “MKN45 Cell Prolif. 120 hr (Ymin-Obs)” value was found to be 11.86.

Take `O=C1CC[C@H](N2Cc3cc(O[C@H]4CCN(Cc5ccc6nc(N7CCOCC7)ccc6c5)C4)ccc3C2=O)C(=O)N1` [(3S)-3-(5-{[(3S)-1-{[2-(morpholin-4-yl)quinolin-6-yl]methyl}pyrrolidin-3-yl]oxy}-1-oxo-2,3-dihydro-1H-isoindol-2-yl)piperidine-2,6-dione]: the “293T-LentiX WEE1-ePL Degradation 4 hr (Ymin)” value on WEE1 (setting [2]) came out at 34.59. The DC50 on WEE1 worked out at 1.83 nM. Besides, the EC50 in the assay on MKN45 cells (growth inhibition) is 9.71 nM. In addition, in the assay on MKN45 cells, the “MKN45 Cell Prolif. 120 hr (Ymin-Obs)” value came to 14.56.

Turning to `O=C1CC[C@H](N2Cc3cc(O[C@H]4CCN(Cc5cc(C6COC6)c6nc(C7CCOCC7)ccc6c5)C4)ccc3C2=O)C(=O)N1` [(3S)-3-(5-{[(3S)-1-{[2-(oxan-4-yl)-8-(oxetan-3-yl)quinolin-6-yl]methyl}pyrrolidin-3-yl]oxy}-1-oxo-2,3-dihydro-1H-isoindol-2-yl)piperidine-2,6-dione], the “293T-LentiX WEE1-ePL Degradation 4 hr (Ymin)” value at WEE1 (setting [1]) came to 88.43. For the same molecule, in the assay on MKN45 cells, the EC50 stood at 2.94 nM and the “MKN45 Cell Prolif. 120 hr (Ymin-Obs)” value worked out at 96.91.

In general, EC50 refers to the midpoint of the concentration-response curve.
